Reference: paper PMC6970549, “Orai1 Channel Inhibition Preserves Left Ventricular Systolic Function and Normal Ca^2+ Handling After Pressure Overload” (Circulation, 2020)

Molecular target: Orai1 (Homo sapiens, UniProt Q96D31)
Assay: patch-clamp electrophysiology in Orai1-transfected HEK293 cells
Type: cell-based
Source text: patch-clamp electrophysiology in Orai1-transfected HEK293 cells on Orai1 | Electrophysiological recordings in Orai1-transfected HEK293 cells also confirmed that JPIII is a potent Orai1 inhibitor with an IC50 of […]

Sequence of Orai1 (Q96D31 whole entry): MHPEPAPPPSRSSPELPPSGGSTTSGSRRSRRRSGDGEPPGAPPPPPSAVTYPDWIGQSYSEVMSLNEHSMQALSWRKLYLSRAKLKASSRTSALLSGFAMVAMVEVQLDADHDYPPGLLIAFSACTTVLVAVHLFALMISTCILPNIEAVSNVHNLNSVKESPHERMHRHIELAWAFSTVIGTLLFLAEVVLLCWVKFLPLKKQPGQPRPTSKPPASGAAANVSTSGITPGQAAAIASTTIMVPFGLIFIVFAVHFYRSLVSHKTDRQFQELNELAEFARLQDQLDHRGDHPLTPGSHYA

- IC50: 244 ± 39 nM
SMILES: COc1ccc(OC)c(-c2ccc(NCc3ccncc3)cc2)c1 [JPIII, 4-(2,5-dimethoxyphenyl)-N-[(pyridin-4-yl)methyl]aniline]
